Our source for the EC50 values is patent US9499550B2 (BRISTOL-MYERS SQUIBB COMPANY, priority 2012, dated 2016).

In assay [1] the test system is HCV genotype 1b (Con1) replicon in HUH-7 cells. Put plainly: HCV replicon luciferase reporter assay, genotype 1b. It counts as cell-based. The following applies: Hepatitis C virus, Huh-7, 72 h, HCV genotype 1b replicon luciferase, 3 days incubation. A digest of the protocol: (§1)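 Replicon inhibition for both genotypes was measured as Renilla luciferase signal (EnduRen, 7.5 μM final, 2 h) after 3-day, 37° C exposure of replicon-bearing HUH-7 cells in 4% FCS DMEM, 0.5% DMSO. The 1b construct carries S1179I; the 1a H77 construct carries P1496L and S2204I. Twenty-point, 3-fold dilutions were fitted four-parametrically for EC50, and CC50 was taken from multiplexed Cell Titer-Blue.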
On the technique in general: In antiviral work, replicon cells carry a viral genome segment that copies itself.

The subject of assay [2] is HCV genotype 1a (H77 strain) replicon in HUH-7 cells. Put plainly: HCV replicon luciferase reporter assay, genotype 1a. It counts as cell-based. Particulars: Hepatitis C virus, Huh-7, 72 h, HCV genotype 1a replicon luciferase, 3 days incubation. Summed up: as §1

Each structure is given as a SMILES string. Like-named read-outs stand apart in the source and are kept apart here.

The term EC50 denotes the concentration at which the effect is half-maximal. With `C[C@@H]1CC/C=C\[C@@H]2C[C@@]2(C(=O)NS(=O)(=O)C2(C)CC2)NC(=O)[C@@H]2C[C@@H](Oc3nccc4c5c(ccc34)N(C)CCO5)CN2C(=O)[C@@H](NC(=O)OC(C)(C)C)[C@H](C)C1` [Compound 5294, tert-butyl ((2R,6S,7R,9R,13aS,14aR,16aS,Z)-7,9-dimethyl-2-((4-methyl-3,4-dihydro-2H-[1,4]oxazino[2,3-f]isoquinolin-7-yl)oxy)-14a-(((1-methylcyclopropyl)sulfonyl)carbamoyl)-5,16-dioxo-1,2,3,5,6,7,8,9,10,11,13a,14,14a,15,16,16a-hexadecahydrocyclopropa[e]pyrrolo[1,2-a][1,4]diazacyclopentadecin-6-yl)carbamate], the EC50 in assay [1] (read-out: LE_1b (EC50, range)) is under 5.46 nM; in assay [2] (read-out: LE_1a (EC50, range)), under 5.46 nM.

Consider `C[C@H]1CC/C=C\[C@@H]2C[C@@]2(C(=O)NS(=O)(=O)C2(C)CC2)NC(=O)[C@@H]2C[C@@H](Oc3nccc4c5c(ccc34)N(C)CCO5)CN2C(=O)[C@@H](NC(=O)OC(C)(C)C(F)(F)F)[C@H](C)C1` [Compound 5295, 1,1,1-trifluoro-2-methylpropan-2-yl((2R,6S,7R,9S,13aS,14aR,16aS,Z)-7,9-dimethyl-2-((4-methyl-3,4-dihydro-2H-[1,4]oxazino[2,3-f]isoquinolin-7-yl)oxy)-14a-(((1-methylcyclopropyl)sulfonyl)carbamoyl)-5,16-dioxo-1,2,3,5,6,7,8,9,10,11,13a,14,14a,15,16,16a-hexadecahydrocyclopropa[e]pyrrolo[1,2-a][1,4]diazacyclopentadecin-6-yl)carbamate], for which the 50% effective concentration (EC50) was under 5.46 nM in assay [1] (read-out: LE_1b (EC50, range)) and 4.82 to 103 nM in assay [2] (read-out: LE_1a (EC50, range)).

For `C[C@@H]1CC/C=C\[C@@H]2C[C@@]2(C(=O)NS(=O)(=O)C2(C)CC2)NC(=O)[C@@H]2C[C@@H](Oc3nccc4c5c(ccc34)N(C)CCO5)CN2C(=O)[C@@H](NC(=O)OC(C)(C)C(F)(F)F)[C@H](C)C1` [Compound 5296, 1,1,1-trifluoro-2-methylpropan-2-yl((2R,6S,7R,9R,13aS,14aR,16aS,Z)-7,9-dimethyl-2-((4-methyl-3,4-dihydro-2H-[1,4]oxazino[2,3-f]isoquinolin-7-yl)oxy)-14a-(((1-methylcyclopropyl)sulfonyl)carbamoyl)-5,16-dioxo-1,2,3,5,6,7,8,9,10,11,13a,14,14a,15,16,16a-hexadecahydrocyclopropa[e]pyrrolo[1,2-a][1,4]diazacyclopentadecin-6-yl)carbamate], the EC50 in assay [1] (read-out: LE_1b (EC50, range)) was under 5.46 nM; in assay [2] (read-out: LE_1a (EC50, range)), under 5.46 nM.

Take `[2H]C([2H])([2H])C(OC(=O)N[C@@H]1C(=O)N2C[C@H](Oc3nccc4c5c(ccc34)N(C)CCO5)C[C@H]2C(=O)N[C@]2(C(=O)NS(=O)(=O)C3(C)CC3)C[C@H]2/C=C\CC[C@H](C)C[C@H]1C)(C([2H])([2H])[2H])C(F)(F)F` [Compound 5297, 1,1,1,3,3,3-hexadeutero-2-(trifluoromethyl)propan-2-yl((2R,6S,7R,9S,13aS,14aR,16aS,Z)-7,9-dimethyl-2-((4-methyl-3,4-dihydro-2H-[1,4]oxazino[2,3-f]isoquinolin-7-yl)oxy)-14a-(((1-methylcyclopropyl)sulfonyl)carbamoyl)-5,16-dioxo-1,2,3,5,6,7,8,9,10,11,13a,14,14a,15,16,16a-hexadecahydrocyclopropa[e]pyrrolo[1,2-a][1,4]diazacyclopentadecin-6-yl)carbamate]: the EC50 was 3.16 nM in assay [1] (read-out: LE_1b (EC50)); under 5.46 nM in assay [1] (read-out: LE_1b (EC50, range)); 7.06 nM in assay [2] (read-out: LE_1a (EC50)); 4.82 to 103 nM in assay [2] (read-out: LE_1a (EC50, range)).
